From patent publication US20100267561A1, “HERBICIDAL PYRIDAZINONE DERIVATIVES” (priority 2007, published 2010)

How the values were obtained:
Format in all cases: in vivo
[1] = system: barnyardgrass (Echinochloa crus-galli); assay: Test B flooded paddy test plant response
In short: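 Paddy-water application to 2-leaf plants in pots held under 3 cm of flooding; response is a 0–100 visual control rating against controls after 13 to 15 days, and a dash marks a missing result.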

[2] = system: canarygrass (Phalaris minor); assay: Test B postemergence plant response; details: for Plant response rating, Canarygrass: Postemergence
In short: (§1)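 Postemergence greenhouse test; plants at 2 to 18 cm (1- to 4-leaf stage) given formulated test chemical, held 13 to 15 days, then visually rated against untreated controls on a 0 (no effect) to 100 (complete control) scale; dash means no result.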

[3] = system: windgrass (Apera spica-venti); assay: Test B postemergence plant response; details: for Plant response rating, Windgrass: Postemergence
In short: as §1

[4] = system: chickweed (Stellaria media); assay: Test B postemergence plant response; details: for Plant response rating, Chickweed: Postemergence
In short: as §1

[5] = system: winter barley (Hordeum vulgare); assay: Test B postemergence plant response; details: for Plant response rating, Barley: Postemergence, scale 0 to 100, 0 no effect, 100 complete control
In short: as §1

[6] = system: eastern black (E.B.) nightshade (Solanum ptycanthum); assay: Test B pre-/postemergence plant response; details: Preemergence
In short: (§2)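 Preemergence and postemergence (plants 2-18 cm, 1- to 4-leaf stage) applications used test chemicals in a non-phytotoxic solvent with surfactant. Plants were held in a greenhouse 13 to 15 days, then rated visually against controls on a 0-100 scale (0 no effect, 100 complete control).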

[7] = system: bermudagrass (Cynodon dactylon); assay: Test B pre-/postemergence plant response; details: for Bermudagrass plant response rating: 8 g ai/ha
In short: as §2

[8] = system: lambsquarters (Chenopodium album); assay: Test B pre-/postemergence plant response; details: for Lambsquarters plant response rating: 8 g ai/ha
In short: as §2

[9] = system: morningglory (Ipomoea coccinea); assay: Test B pre-/postemergence plant response; details: for Morningglory plant response rating: 8 g ai/ha
In short: as §2

[10] = system: blackgrass (Alopecurus myosuroides); assay: Test B pre-/postemergence plant response; details: for Plant response rating, Blackgrass: Postemergence
In short: as §2

[11] = system: giant foxtail (Setaria faberii); assay: Test B pre-/postemergence plant response; details: for Foxtail, Giant plant response rating: 8 g ai/ha
In short: as §2

[12] = system: velvetleaf (Abutilon theophrasti); assay: Test B pre-/postemergence plant response; details: for Velvetleaf plant response rating: 8 g ai/ha
In short: as §2

corn (Zea mays) = assay: Test B pre-/postemergence plant response; details: for Corn plant response rating: 8 g ai/ha
In short: as §2

wild oat (Avena fatua) = assay: Test B pre-/postemergence plant response; details: for Oat, Wild plant response rating: 8 g ai/ha
In short: as §2

[13] = system: yellow nutsedge (Cyperus esculentus); assay: Test B pre-/postemergence plant response; details: for Nutsedge, Yellow plant response rating: 8 g ai/ha
In short: as §2

[14] = 8 g ai/ha, postemergence, 0-100 scale
[15] = 31 g ai/ha, scale 0 to 100, 0 no effect, 100 complete control
[16] = 62 g ai/ha, scale 0 to 100, 0 no effect, 100 complete control
[17] = Postemergence, 16 g ai/ha, scale 0 to 100
[18] = Postemergence, 31 g ai/ha, scale 0 to 100, 0 no effect, 100 complete control
[19] = Postemergence, 62 g ai/ha, scale 0 to 100, 0 no effect, 100 complete control
[20] = Preemergence, 16 g ai/ha, scale 0 to 100 (0 no effect, 100 complete control)
[21] = Preemergence, 31 g ai/ha, 0 to 100 scale, 0 no effect, 100 complete control
[22] = Preemergence, 62 g ai/ha, scale 0 to 100

## Cn1ncc(O)c(-c2nn(-c3ccc(Cl)cc3)cc2Cl)c1=O [Compound 28]
[1]; Flood (flooded paddy test), 62 g ai/ha, scale 0 to 100, 0 no effect, 100 complete control
  Plant response rating, Barnyardgrass: 0
[1]; Flood (flooded paddy test), 125 g ai/ha, scale 0 to 100, 0 no effect, 100 complete control
  Plant response rating, Barnyardgrass: 0
[1]; Flood (flooded paddy test), 250 g ai/ha, scale 0 to 100, 0 no effect, 100 complete control
  Plant response rating, Barnyardgrass: 30
[1]; Flood, 31 g ai/ha, scale 0 to 100
  Plant response rating, Barnyardgrass: 0
[2]; [14]
  Canarygrass plant response rating: 0
[2]; 16 g ai/ha, scale 0 to 100
  Plant response rating, Canarygrass: 0
[2]; [15]
  Plant response rating, Canarygrass: 50
[3]; [14]
  Windgrass plant response rating: 0
[3]; 16 g ai/ha, scale 0 to 100
  Plant response rating, Windgrass: 35
[3]; [16]
  Plant response rating, Windgrass: 85
[4]; [14]
  Chickweed plant response rating: 0
[4]; 16 g ai/ha, scale 0 to 100
  Plant response rating, Chickweed: 0
[4]; [15]
  Plant response rating, Chickweed: 0
[4]; [16]
  Plant response rating, Chickweed: 0
[5]; [14]
  Barley plant response rating: 0
[5]; 16 g ai/ha
  Plant response rating, Barley: 0
[5]; 31 g ai/ha
  Plant response rating, Barley: 50
[6]; 16 g ai/ha, scale 0 to 100 (0 no effect, 100 complete control)
  Plant response rating, Nightshade, E. B.: 0
[6]; 31 g ai/ha, 0 to 100 scale, 0 no effect, 100 complete control
  Plant response rating, Nightshade, E. B.: 0
[6]; 62 g ai/ha, scale 0 to 100
  Plant response rating, Nightshade, E. B.: 0
[6]; 8 g ai/ha, scale 0 to 100
  Nightshade, E. B. plant response rating: 0
[7]; postemergence, 0-100 scale
  Bermudagrass plant response rating: 65
[7]; [17]
  Plant response rating, Bermudagrass: 80
[7]; [18]
  Plant response rating, Bermudagrass: 100
[7]; [19]
  Plant response rating, Bermudagrass: 100
[7]; Preemergence, scale 0 to 100 (0 no effect, 100 complete control)
  Bermudagrass plant response rating: 0
[7]; [20]
  Plant response rating, Bermudagrass: 100
[7]; [21]
  Plant response rating, Bermudagrass: 100
[7]; [22]
  Plant response rating, Bermudagrass: 100
[8]; postemergence, 0-100 scale
  Lambsquarters plant response rating: 0
[8]; [17]
  Plant response rating, Lambsquarters: 0
[8]; [18]
  Plant response rating, Lambsquarters: 0
[8]; [19]
  Plant response rating, Lambsquarters: 0
[8]; [20]
  Plant response rating, Lambsquarters: 95
[8]; [21]
  Plant response rating, Lambsquarters: 95
[8]; [22]
  Plant response rating, Lambsquarters: 98
[8]; Preemergence, scale 0 to 100
  Lambsquarters plant response rating: 80
[9]; postemergence, 0-100 scale
  Morningglory plant response rating: 0
[9]; [17]
  Plant response rating, Morningglory: 0
[9]; [18]
  Plant response rating, Morningglory: 0
[9]; [19]
  Plant response rating, Morningglory: 0
[9]; [20]
  Plant response rating, Morningglory: 0
[9]; [21]
  Plant response rating, Morningglory: 0
[9]; [22]
  Plant response rating, Morningglory: 0
[9]; Preemergence, scale 0 to 100
  Morningglory plant response rating: 0
[10]; [14]
  Blackgrass plant response rating: 60
[10]; 16 g ai/ha, scale 0 to 100
  Plant response rating, Blackgrass: 70
[10]; [15]
  Plant response rating, Blackgrass: 95
[10]; [16]
  Plant response rating, Blackgrass: 100
[11]; postemergence, 0-100 scale
  Foxtail, Giant plant response rating: 65
[11]; [17]
  Plant response rating, Foxtail, Giant: 80
[11]; [18]
  Plant response rating, Foxtail, Giant: 95
[11]; [19]
  Plant response rating, Foxtail, Giant: 100
[11]; [20]
  Plant response rating, Foxtail, Giant: 98
[11]; [21]
  Plant response rating, Foxtail, Giant: 100
[11]; [22]
  Plant response rating, Foxtail, Giant: 100
[11]; Preemergence, scale 0 to 100
  Foxtail, Giant plant response rating: 60
[12]; postemergence, 0-100 scale
  Velvetleaf plant response rating: 0
[12]; [17]
  Plant response rating, Velvetleaf: 0
[12]; [19]
  Plant response rating, Velvetleaf: 0
[12]; [20]
  Plant response rating, Velvetleaf: 0
[12]; [21]
  Plant response rating, Velvetleaf: 0
[12]; [22]
  Plant response rating, Velvetleaf: 0
[12]; Preemergence, scale 0 to 100
  Velvetleaf plant response rating: 0
Corn (Zea mays); postemergence, 0-100 scale
  Corn plant response rating: 0
Corn (Zea mays); [17]
  Plant response rating, Corn: 0
Corn (Zea mays); [18]
  Plant response rating, Corn: 0
Corn (Zea mays); [19]
  Plant response rating, Corn: 40
Corn (Zea mays); [20]
  Plant response rating, Corn: 0
Corn (Zea mays); [21]
  Plant response rating, Corn: 55
Corn (Zea mays); [22]
  Plant response rating, Corn: 90
Corn (Zea mays); Preemergence, scale 0 to 100
  Corn plant response rating: 0
Wild oat (Avena fatua); postemergence, 0-100 scale
  Oat, Wild plant response rating: 45
Wild oat (Avena fatua); [17]
  Plant response rating, Oat, Wild: 80
Wild oat (Avena fatua); [18]
  Plant response rating, Oat, Wild: 95
Wild oat (Avena fatua); [19]
  Plant response rating, Oat, Wild: 98
Wild oat (Avena fatua); [20]
  Plant response rating, Oat, Wild: 50
Wild oat (Avena fatua); [21]
  Plant response rating, Oat, Wild: 70
Wild oat (Avena fatua); [22]
  Plant response rating, Oat, Wild: 90
Wild oat (Avena fatua); Preemergence, scale 0 to 100
  Oat, Wild plant response rating: 0
[13]; postemergence, 0-100 scale
  Nutsedge, Yellow plant response rating: 0
[13]; [17]
  Plant response rating, Nutsedge, Yellow: 0
[13]; [18]
  Plant response rating, Nutsedge, Yellow: 0
[13]; [19]
  Plant response rating, Nutsedge, Yellow: 0
[13]; [20]
  Plant response rating, Nutsedge, Yellow: 0
[13]; [21]
  Plant response rating, Nutsedge, Yellow: 0
[13]; [22]
  Plant response rating, Nutsedge, Yellow: 0
[13]; Preemergence, scale 0 to 100
  Nutsedge, Yellow plant response rating: 0
